In patent publication US20240141299A1, “Cofactors FAD and PLP for Promoting Pancreatic Progenitors in Pancreatic Development” (Qatar Foundation for Education, Science and Community …, priority 2022, published 2024):

Experiments:
[1] = tested on: hiPSC-derived pancreatic progenitors; assay: Western blotting of transcription factors in FAD-treated pancreatic progenitors; format: cell-based, human; conditions: FIG. 7
Method: (§1) Human induced pluripotent stem cells (hiPSCs) are cultured and maintained using mTeSR Plus medium (Stem Cell Technologies, Canada), then plated on 1:50 Matrigel-coated dishes (Corning, USA). Upon reaching 70-80% confluency, cells are differentiated into pancreatic progenitors using a protocol described by Memon et al. (Memon et al. Stem Cell Research and Therapy, 9, Article 15, 2018). Cells are treated with different concentrations of FAD (0.25 μM, 0.5 μM, and 1 μM) (Sigma-Aldrich, Germany) during the four days of pancreatic progenitor stage of in vitro differentiation. The control cells are treated with water. After the treatment period, cells are fixed and immunostaining is performed using previously reported protocols by Memon et al. Cells are also collected for total protein extraction using Radioimmunoprecipitation Assay (RIPA) lysis buffer and are normalized to 20 ng/μL before SDS-PAGE separation. Nitrocellulose membranes are blocked using 15% skimmed milk in 0.5% tris-buffered saline (TBST). Membranes are then incubated with primary antibodies overnight at 4° C. Membranes are washed with 0.5% TBST and secondary antibodies are added for 1 hour at room temperature. Membranes are developed using SuperSignal West Pico Chemiluminescent substrate (Pierce, Loughborough, UK) and are then visualized using iBright™ CL 1000 Imaging System (Invitrogen).

SOX2 HMG domain = target: T1, SOX2 HMG domain (Homo sapiens, UniProt P48431); assay: UV-visible absorbance spectroscopy of purified SOX2 HMG domain for bound cofactor; format: binding; conditions: purified SOX2 HMG domain from bacterial expression
T1 construct: made in house

[2] = tested on: hiPSC-derived pancreatic progenitors; assay: Immunostaining of PDX1 and NKX6.1 in FAD-treated pancreatic progenitors; format: cell-based, human; conditions: different FAD concentrations during four days of pancreatic progenitor stage; FIG. 6
Method: as §1

[3] = tested on: hiPSC-derived pancreatic progenitors; assay: Expression of pancreatic developmental markers after cofactor treatment of differentiating hiPSCs (FIG. 5, FIG. 8); format: cell-based, human
Method: Human induced pluripotent stem cells (hiPSCs) are cultured and maintained using mTeSR Plus medium (Stem Cell Technologies, Canada), then plated on 1:50 Matrigel-coated dishes (Corning, USA). Upon reaching 70-80% confluency, cells are differentiated into pancreatic progenitors using a protocol described by Memon et al. (Memon et al. Stem Cell Research and Therapy, 9, Article 15, 2018). Cells are treated with different concentrations of FAD (0.25 μM, 0.5 μM, and 1 μM) (Sigma-Aldrich, Germany) during the four days of pancreatic progenitor stage of in vitro differentiation. The control cells are treated with water.

SOX9 HMG domain [4] = target: T2, SOX9 HMG domain (Mus musculus, UniProt Q04887); assay: 1D-PAGE in-gel digest and LC-MS/MS of SOX9 HMG domain to identify bound cofactor; format: binding; conditions: purified SOX9 HMG domain; FIG. 2
T2 construct: construct containing HMG and N-terminal domain, 1-173 amino acids; His tag (pET-28a) (N); made in house; host or cells: E. coli BL21(DE3)-RIL
T2 sequence (Q04887 1-173): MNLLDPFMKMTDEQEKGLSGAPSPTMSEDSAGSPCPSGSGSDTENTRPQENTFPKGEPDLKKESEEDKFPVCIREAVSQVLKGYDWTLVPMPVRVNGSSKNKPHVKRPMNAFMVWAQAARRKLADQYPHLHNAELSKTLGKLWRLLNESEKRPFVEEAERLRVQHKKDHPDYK
Method: MS data are analyzed and annotated with Genedata Expressionist software (v.13.0.1) using the Peptide Mapping Tool. The raw MS data are processed using two Genedata modules: Refiner MS for data pre-processing, and Analyst for data post-processing and statistical analyses. Briefly, after noise reduction, LC-MS1 base peaks are detected and their properties calculated (m/z and RT boundaries, m/z and RT center values, intensity). Chromatograms are further aligned based on the RT spectra using a 2 min range. Individual peaks are grouped into clusters and MS/MS data associated to these clusters are annotated with the Peptide Mapping Tool using the FASTA sequence of sp|Q04887|SOX9_MOUSE Transcription factor SOX-9. The search is performed with a peptide tolerance of 0.1 Da, a MS/MS tolerance of 0.01 Da, two allowed missed cleavages, and only annotations with a minimum score of 10 are considered. As variable modifications, the following parameters are applied: carbamidomethyl (C) maximum: 2 per sequence allowed: anywhere, FAD (C), FAD (H), FAD (Y) maximum: 2 per sequence allowed: anywhere, FMN (S), FMN (T) maximum: 2 per sequence allowed: anywhere, pyridoxal phosphate (K) maximum: 2 per sequence allowed: anywhere, and pyridoxal phosphate H2 (K) maximum: 2 per sequence allowed: anywhere.

SOX9 HMG domain [5] = target: T2, SOX9 HMG domain; assay: UV-visible absorbance spectroscopy of purified SOX9 HMG domain for bound cofactor; format: binding; conditions: purified SOX9 HMG domain from bacterial expression; FIG. 1E
Method: Purified SOX9 proteins of 2-4 mg/ml concentration are used for reading the absorbance of bind cofactors. The UV-Vis spectra are obtained on a UV-Vis spectrophotometer BMS (Biotechnology Medical Science) UV-1602, scanning from 300 nm to 800 nm. The baseline is corrected with the buffer used to prepare the protein samples.

T1 sequence (P48431 41-109 limits assumed): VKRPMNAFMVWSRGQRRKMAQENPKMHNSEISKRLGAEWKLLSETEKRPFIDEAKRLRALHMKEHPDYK

absorbance peak at approximately 420 nm (FAD-bound protein) (SOX2 HMG domain)	cofactor binding detected by LC-MS/MS peaks (SOX9 HMG domain [4])	Structure (SMILES)	PTF1a level (exocrine marker) ([1]; 0.5 μM and 1 μM FAD)	SOX9 level ([1]; FAD 0.25 μM, 0.5 μM, 1 μM, four days of pancreatic progenitor stage)	co-expression of PDX1 and NKX6.1 (efficiency of pancreatic progenitor differentiation) [2]	relative changes in NGN3 and NKX6.1 ([3]; FAD added to early stage differentiation, FIG. 5)	expression of NGN3 ([3]; about 0.5 μM FAD, FIG. 8A)	absorbance peak at approximately 420 nm (FAD-bound protein) (SOX9 HMG domain [5])	expression of NGN3 ([3]; about 4 μM-8 μM PLP, FIG. 8B)	expression of PTF1a ([3]; about 4 μM-8 μM PLP, FIG. 8B)
no obvious peak	suggestive of FAD, FMN and PLP binding	Cc1cc2nc3c(=O)[nH]c(=O)nc-3n(C[C@H](O)[C@H](O)[C@H](O)COP(=O)(O)OP(=O)(O)OC[C@H]3O[C@@H](n4cnc5c(N)ncnc54)[C@H](O)[C@@H]3O)c2cc1C [FAD, Flavin Adenine Dinucleotide]	increased	increases gradually with increased FAD concentrations	most of the pancreatic progenitor cells co-expressed PDX1 and NKX6.1	appears to increase pancreatic developmental factors	along with NGN3	peak at approximately 420 nm characteristic of an FAD-bound protein		
	suggestive of FAD, FMN and PLP binding	Cc1cc2nc3c(=O)[nH]c(=O)nc-3n(C[C@H](O)[C@H](O)[C@H](O)COP(=O)(O)O)c2cc1C [FMN, Flavin Mononucleotide]								
	suggestive of FAD, FMN and PLP binding	Cc1ncc(COP(=O)(O)O)c(C=O)c1O [PLP, Pyridoxal 5′-phosphate]							high expression of NGN3	appearance of PTF1a
